Assay [1] deals with recombinant human NF-kappaB-inducing kinase (NIK/MAP3K14) (Homo sapiens, UniProt Q99558). The assay is described as follows: Inhibition of auto-phosphorylation of recombinant human NIK/MAP3K14 activity (AlphaScreen). The settings on record: GST-tagged NIK/MAP3K14 1 nM, 5 μM ATP, 2 h at 25° C.; average of values obtained. The format is biochemical. As for the experimental part: Inhibition of Auto-Phosphorylation of Recombinant Human NF-kappaB-Inducing Kinase (NIK/MAP3K14) Activity (AlphaScreen®)
Chain of recombinant human NF-kappaB-inducing kinase (NIK/MAP3K14) (Q99558 whole entry): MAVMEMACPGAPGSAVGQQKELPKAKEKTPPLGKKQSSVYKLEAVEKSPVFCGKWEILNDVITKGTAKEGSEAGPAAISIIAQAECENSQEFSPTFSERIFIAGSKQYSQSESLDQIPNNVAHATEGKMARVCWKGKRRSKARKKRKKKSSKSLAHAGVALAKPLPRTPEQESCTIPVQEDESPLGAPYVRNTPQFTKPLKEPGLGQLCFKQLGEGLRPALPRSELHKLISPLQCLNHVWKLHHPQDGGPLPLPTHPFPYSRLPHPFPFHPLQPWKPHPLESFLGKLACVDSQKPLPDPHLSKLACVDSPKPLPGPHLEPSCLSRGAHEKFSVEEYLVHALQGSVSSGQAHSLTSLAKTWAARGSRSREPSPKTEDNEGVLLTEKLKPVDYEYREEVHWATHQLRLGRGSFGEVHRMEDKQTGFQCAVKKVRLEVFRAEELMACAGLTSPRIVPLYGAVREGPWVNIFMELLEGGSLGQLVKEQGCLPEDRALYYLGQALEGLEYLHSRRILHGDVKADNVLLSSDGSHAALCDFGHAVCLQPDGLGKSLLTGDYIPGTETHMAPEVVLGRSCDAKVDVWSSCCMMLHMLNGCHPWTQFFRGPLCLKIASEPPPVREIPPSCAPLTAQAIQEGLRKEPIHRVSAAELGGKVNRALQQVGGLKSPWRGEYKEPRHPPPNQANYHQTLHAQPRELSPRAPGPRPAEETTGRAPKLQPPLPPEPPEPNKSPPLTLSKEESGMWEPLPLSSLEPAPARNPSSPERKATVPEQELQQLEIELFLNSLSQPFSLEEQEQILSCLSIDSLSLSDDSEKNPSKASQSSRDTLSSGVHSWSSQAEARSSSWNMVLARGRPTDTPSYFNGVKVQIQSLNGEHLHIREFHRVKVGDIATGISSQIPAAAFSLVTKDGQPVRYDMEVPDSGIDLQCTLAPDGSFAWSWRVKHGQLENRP
NIK/MAP3K14 auto-phosphorylation activity was measured using the AlphaScreen® (αscreen) format (Perkin Elmer). All compounds tested were dissolved in dimethyl sulfoxide (DMSO) and further dilutions were made in assay buffer. The final DMSO concentration was 0.7% (v/v) in assays. The assay buffer was 50 mM Tris pH 7.5 containing 1 mM EGTA (ethylene glycol tetraacetic acid), 1 mM DTT (dithiothreitol), 0.1 mM Na3VO4, 5 mM MgCl2, and 0.01% Tween® 20. The assays were carried out in 384 well Proxiplates (Perkin Elmer). The incubations consisted of the compound, 5 μM Adenosine-5′-triphosphate (ATP), and 1 nM NIK/MAP3K14. Incubations were initiated by the addition of GST-tagged NIK/MAP3K14 enzyme, carried out for 2 h at 25° C. and terminated by addition of stop buffer containing anti-phospho-IKK Ser176/180 antibody. Protein A Acceptor and Glutathione-Donor beads were added before reading using an EnVision Multilabel Plate Reader (Perkin Elmer). The signal obtained in the wells was normalized using high (full enzyme activity, 0.7% DMSO) and low controls (no enzyme activity, 0.7% DMSO, no ATP). IC50's were determined by fitting a sigmoidal curve to % inhibition of control versus Log10 compound concentration.
(In general: Bead proximity is the source of the signal in Alpha formats.)

The subject of assay [2] is p-IKKα levels in L363 (NIK translocated multiple myeloma) cells. The assay is described as follows: Effect of compounds on p-IKKα levels in L363 cells (AlphaLISA SureFire Ultra). The format is cell-based, human. The settings on record: 10 μM MG132, 6 h, average of values obtained, read-out: Assay 2 IC50. As for the experimental part: Effect of Compounds on p-IKKα Levels in L363 (NIK Translocated Multiple Myeloma) Cells
All compounds tested were dissolved and serially diluted in DMSO, 1:3 dilution for 11 points in an Echo compatible plate. 100% DMSO was added to columns 12 and 24 of the plate to serve as high and low signal controls. This compound plate was used to spot 20 nL of compound or DMSO into a Greiner 384 well TC plate (781080). The final DMSO concentration was 0.3% (v/v) in cell assays. Human L363 cells (ATCC) were cultured in RPMI1640 medium supplemented with GlutaMax, non-essential amino acids, sodium pyruvate and 10% fetal bovine serum. Cells were routinely maintained at densities of […]-2×10^6 cells per mL at 37° C. in a humidified 5% CO2 atmosphere incubator. Cells were passaged twice a week splitting back to obtain the low density. The day before the assay, cells were washed twice in HBSS (Hank's Balanced Salt Solution), resuspended in Dulbecco's Modified Eagle Medium (DMEM)+0.5% IgG and protease free BSA (Jackson Immuno Research Laboratories), +/−250 ng/ml recombinant human B-cell activating factor (BAFF/BLyS/TNFSF13B) and incubated overnight at 37° C. in a humidified 5% CO2 atmosphere (bulk stimulation with or without BAFF). The next day, the cell concentration was adjusted to 1×10^7 cells/ml in DMEM+/−250 ng/ml BAFF+/10 μM MG132 and plated at […] into compound or DMSO spotted 384 well TC plates. Seeded cells were incubated at 37° C. in a humidified 5% CO2 atmosphere for 6 h. After 6 h, the plates were removed from the incubator and cell lysis was achieved by the addition of 2.5 μl 5×lysis buffer containing protease and phosphatase inhibitors, followed by shaking on a plate shaker at room temperature for 15 min. At the end of this incubation, lysed cells were sequentially treated and incubated with acceptor and donor bead mixes according to the manufacturer's protocol for a 1 plate/2-incubation suspension cell assay (AlphaLISA SureFire Ultra p-IKKa (Ser 176/180) Assay Kit (Perkin Elmer). Plates were read using an EnVision Multilabel Plate Reader (Perkin Elmer). Within an experiment, a concentration response curve for each compound was run in duplicate. The signal obtained in the test wells was normalized using high signal (BAFF stimulated cells, DMSO, MG132) and low signal (unstimulated cells, DMSO) controls. To determine the IC50, a sigmoidal curve was fitted to the plot of % inhibition versus Log10 compound concentration.

Setting [3] is: Homo sapiens, L-363, 6 h, 250 ng/ml BAFF stimulated.
[4] abbreviates: Homo sapiens, L-363, 250 ng/ml BAFF stimulated.

23 molecules from patent US20230416256A1, “SMALL MOLECULE INHIBITORS OF NF-kB INDUCING KINASE” (Janssen Pharmaceutica NV, priority 2020, published 2023) can be followed below.

Structures are written as SMILES. Read-outs that look alike come from different tables or passages of the source. Some results are limits rather than exact numbers.

Usually IC50 stands for the midpoint of a concentration-inhibition curve.

Turning to `C[C@]1(O)C[C@@](O)(c2cccc(-c3csc(-c4c[nH]c5ncccc45)n3)c2)c2ncccc21` (single isomer, unassigned) [Example 108], the results for the half-maximal inhibitory concentration (IC50) in assay [1] and in assay [2] (setting [3]) were 100 to 500 nM and > 500 nM, respectively.

In the case of `O[C@@]1(c2cccc(-c3csc(-c4c[nH]c5ncncc45)n3)c2)CCc2cccnc21` (single isomer, unassigned) [Example 5], the IC50 is ≤ 100 nM in assay [1] and 100 to 500 nM in assay [2] (setting [3]).

As for `CN1CC[C@@](O)(c2cccc(-c3nc(-c4c[nH]c5ncccc45)cs3)c2)C1=O` [Example 8, (R)-3-(3-(4-(1H-Pyrrolo[2,3-b]pyridin-3-yl)thiazol-2-yl)phenyl)-3-hydroxy-1-methylpyrrolidin-2-one], the values for the IC50 in assay [1] and in assay [2] (setting [4]) were ≤ 100 nM and > 500 nM, respectively.

On to `CN1CC[C@@](O)(c2cccc(-c3csc(-c4c[nH]c5ncncc45)n3)c2)C1=O` [Example 53, (R)-3-(3-(2-(7H-Pyrrolo[2,3-d]pyrimidin-5-yl)thiazol-4-yl)phenyl)-3-hydroxy-1-methylpyrrolidin-2-one], for which the IC50 in assay [1] is ≤ 100 nM; in assay [2] (setting [4]), > 500 nM.

As for `O[C@@]1(c2cccc(-c3csc(-c4c[nH]c5nccnc45)n3)c2)COc2cccnc21` [Example 86, (R)-3-(3-(2-(5H-Pyrrolo[2,3-b]pyrazin-7-yl)thiazol-4-yl)phenyl)-2,3-dihydrofuro[3,2-b]pyridin-3-ol], the half-inhibitory concentration (IC50) in assay [1] and in assay [2] (250 ng/ml BAFF stimulated) was > 500 nM each time.

Consider `O[C@]1(c2cccc(-c3csc(-c4c[nH]c5nccnc45)n3)c2)C=Cn2ccnc21` [Example 14, (S)-7-(3-(2-(5H-Pyrrolo[2,3-b]pyrazin-7-yl)thiazol-4-yl)phenyl)-7H-pyrrolo[1,2-a]imidazol-7-ol], for which the IC50 in assay [1] and in assay [2] (setting [3]) was > 500 nM in each case.

Turning to `O[C@@]1(c2cccc(-c3nc(-c4c[nH]c5ncccc45)cs3)c2)CCc2scnc21` [Example 59, (R)-4-(3-(4-(1H-Pyrrolo[2,3-b]pyridin-3-yl)thiazol-2-yl)phenyl)-5,6-dihydro-4H-cyclopenta[d]thiazol-4-ol], the IC50 in assay [1] and in assay [2] (setting [3]) was ≤ 100 nM each time.

As to `[2H]c1cnc2[nH]cc(-c3nc(-c4cccc([C@@]5(O)CCn6ccnc65)c4)cs3)c2n1` [Example 19, (S)-7-(3-(2-(5H-Pyrrolo[2,3-b]pyrazin-7-yl-2-d)thiazol-4-yl)phenyl)-6,7-dihydro-5H-pyrrolo[1,2-a]imidazol-7-ol], the concentration for half-maximal inhibition (IC50) in assay [1] and in assay [2] (setting [3]) was > 500 nM throughout.

As for `CN1CC[C@@](O)(c2cccc(-c3csc(-n4ccc5nc(N)ccc54)n3)c2)C1=O` [Example 112, (R)-3-(3-(2-(5-Amino-1H-pyrrolo[3,2-b]pyridin-1-yl)thiazol-4-yl)phenyl)-3-hydroxy-1-methylpyrrolidin-2-one], the IC50 in assay [1] and in assay [2] (setting [4]) was > 500 nM each time.

In the case of `O[C@]1(c2cccc(-c3csc(-c4c[nH]c5ncccc45)n3)c2)CCc2cccnc21` (single isomer, unassigned) [Example 1], the half-inhibitory concentration (IC50) in assay [1] and in assay [2] (setting [3]) was > 500 nM each time.

With `CN1CC[C@@](O)(c2cccc(-c3cc(-c4c[nH]c5ncccc45)nn3C)c2)C1=O` [Example 118, (R)-3-Hydroxy-1-methyl-3-(3-(1-methyl-3-(1H-pyrrolo[2,3-b]pyridin-3-yl)-1H-pyrazol-5-yl)phenyl)pyrrolidin-2-one], the IC50 is 100 to 500 nM in assay [1] and > 500 nM in assay [2] (setting [4]).

In the case of `O[C@]1(c2cccc(-c3csc(-c4c[nH]c5ncncc45)n3)c2)CCc2cccnc21` (single isomer, unassigned) [Example 6], the IC50 in assay [1] was 100 to 500 nM; in assay [2] (setting [3]) it was > 500 nM.

`C[C@@](O)(c1cccc(-c2csc(-c3c[nH]c4ncccc34)n2)c1)c1ccccn1` (single isomer, unassigned) [Example 60]: the half-maximal inhibitory concentration (IC50) in assay [1] and in assay [2] (setting [3]) was > 500 nM throughout.

In the case of `O=C1N(CC(F)(F)F)CC[C@]1(O)c1cccc(-c2csc(-c3c[nH]c4nccnc34)n2)c1` [Example 43, (S)-3-(3-(2-(5H-Pyrrolo[2,3-b]pyrazin-7-yl)thiazol-4-yl)phenyl)-3-hydroxy-1-(2,2,2-trifluoroethyl)pyrrolidin-2-one], the IC50 in assay [1] and in assay [2] (setting [4]) was > 500 nM throughout.

On to `O[C@@]1(c2cccc(-c3csc(-c4c[nH]c5ncccc45)n3)c2)CCn2ccnc21` [Example 10, (R)-7-(3-(2-(1H-Pyrrolo[2,3-b]pyridin-3-yl)thiazol-4-yl)phenyl)-6,7-dihydro-5H-pyrrolo[1,2-a]imidazol-7-ol], for which the half-maximal inhibitory concentration (IC50) in assay [1] and in assay [2] (setting [3]) was ≤ 100 nM in each case.

Take `CN1CC[C@@](O)(c2cccc(-c3ncc(-c4c[nH]c5ncccc45)n3C)c2)C1=O` [Example 125, (R)-3-Hydroxy-1-methyl-3-(3-(1-methyl-5-(1H-pyrrolo[2,3-b]pyridin-3-yl)-1H-imidazol-2-yl)phenyl)pyrrolidin-2-one]: the IC50 in assay [1] was 100 to 500 nM; in assay [2] (setting [4]) it was > 500 nM.

Consider `CN1CC[C@@](O)(c2cccc(-c3csc(-c4c(F)[nH]c5ncccc45)n3)c2)C1=O` [Example 57, (R)-3-(3-(2-(2-Fluoro-1H-pyrrolo[2,3-b]pyridin-3-yl)thiazol-4-yl)phenyl)-3-hydroxy-1-methylpyrrolidin-2-one], for which the IC50 was 100 to 500 nM in assay [1] and > 500 nM in assay [2] (setting [4]).

Consider `[2H]c1[nH]c2nccnc2c1-c1nc(-c2cccc([C@]3(O)CCn4ccnc43)c2)cs1` [Example 62, (R)-7-(3-(2-(5H-Pyrrolo[2,3-b]pyrazin-7-yl-6-d)thiazol-4-yl)phenyl)-6,7-dihydro-5H-pyrrolo[1,2-a]imidazol-7-ol], for which the half-inhibitory concentration (IC50) in assay [1] and in assay [2] (setting [3]) was ≤ 100 nM each time.

Regarding `CN1CC[C@@](O)(c2cccc(-c3csc(-c4c(F)[nH]c5ncc(F)cc45)n3)c2)C1=O` [Example 110, (R)-3-(3-(2-(2,5-Difluoro-1H-pyrrolo[2,3-b]pyridin-3-yl)thiazol-4-yl)phenyl)-3-hydroxy-1-methylpyrrolidin-2-one], the half-inhibitory concentration (IC50) in assay [1] was 100 to 500 nM; in assay [2] (setting [4]), > 500 nM.

Turning to `Cc1cc(-c2csc(-c3c[nH]c4nccnc34)n2)cc([C@]2(O)CCN(C)C2=O)c1` [Example 68, (R)-3-(3-(2-(5H-Pyrrolo[2,3-b]pyrazin-7-yl)thiazol-4-yl)-5-methylphenyl)-3-hydroxy-1-methylpyrrolidin-2-one], the IC50 in assay [1] was ≤ 100 nM; in assay [2] (setting [4]) it was > 500 nM.

Turning to `O[C@@]1(c2cccc(-c3csc(-c4n[nH]c5ncccc45)n3)c2)CCn2ccnc21` [Example 75, (R)-7-(3-(2-(1H-Pyrazolo[3,4-b]pyridin-3-yl)thiazol-4-yl)phenyl)-6,7-dihydro-5H-pyrrolo[1,2-a]imidazol-7-ol], the IC50 is 100 to 500 nM in assay [1] and > 500 nM in assay [2] (setting [3]).

Take `C[C@](O)(c1cccc(-c2csc(-c3c[nH]c4nccnc34)n2)c1)c1ncc[nH]1` (single isomer, unassigned) [Example 78]: the half-inhibitory concentration (IC50) in assay [1] and in assay [2] (setting [3]) was > 500 nM each time.

Take `CN1CC[C@@](O)(c2cccc(-c3cnc(-c4c[nH]c5ncccc45)s3)c2)C1=O` (single isomer, unassigned) [Example 3]: the half-maximal inhibitory concentration (IC50) in assay [1] is 100 to 500 nM; in assay [2] (setting [4]), > 500 nM.
